Laboratory results as given in patent US20050209278A1, “Piperidinyl- and piperazinyl-sulfonylmethyl hydroxamic acids and their use as protease inhibitors” (priority 2002, published 2005).
Where two headings read alike, the source gives them in different places.

Tests used:
Format in all cases: biochemical
[1] = target: T1, MMP-2 (Homo sapiens, UniProt P08253); experiment: MMP-2 inhibition (in vitro Ki)
T1 construct: made in house; host or cells: MMP-2-transfected p2AHT2 cells
T1 sequence (P08253 110-660): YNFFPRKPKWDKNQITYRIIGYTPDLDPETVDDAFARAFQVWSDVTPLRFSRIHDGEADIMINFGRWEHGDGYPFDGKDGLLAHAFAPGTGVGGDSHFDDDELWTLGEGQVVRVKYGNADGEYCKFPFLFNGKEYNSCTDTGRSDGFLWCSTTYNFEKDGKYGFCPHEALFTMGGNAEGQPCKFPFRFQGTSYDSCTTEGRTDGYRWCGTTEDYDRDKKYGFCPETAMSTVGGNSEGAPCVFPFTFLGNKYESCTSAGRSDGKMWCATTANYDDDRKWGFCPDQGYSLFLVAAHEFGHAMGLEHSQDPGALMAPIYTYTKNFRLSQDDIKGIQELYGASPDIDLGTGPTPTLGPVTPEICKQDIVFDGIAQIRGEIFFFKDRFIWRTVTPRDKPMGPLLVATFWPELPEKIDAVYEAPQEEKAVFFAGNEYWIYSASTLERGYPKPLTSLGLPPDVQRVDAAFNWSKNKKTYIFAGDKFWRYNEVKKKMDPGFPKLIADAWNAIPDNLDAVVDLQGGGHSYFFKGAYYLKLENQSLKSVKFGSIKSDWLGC

[2] = target: T2, MMP-1 (Homo sapiens, UniProt P03956); experiment: MMP-1 inhibition (in vitro Ki)
T2 construct: made in house; host or cells: MMP-1-transfected HT-1080 cells (spent media)
T2 sequence (P03956 100-469): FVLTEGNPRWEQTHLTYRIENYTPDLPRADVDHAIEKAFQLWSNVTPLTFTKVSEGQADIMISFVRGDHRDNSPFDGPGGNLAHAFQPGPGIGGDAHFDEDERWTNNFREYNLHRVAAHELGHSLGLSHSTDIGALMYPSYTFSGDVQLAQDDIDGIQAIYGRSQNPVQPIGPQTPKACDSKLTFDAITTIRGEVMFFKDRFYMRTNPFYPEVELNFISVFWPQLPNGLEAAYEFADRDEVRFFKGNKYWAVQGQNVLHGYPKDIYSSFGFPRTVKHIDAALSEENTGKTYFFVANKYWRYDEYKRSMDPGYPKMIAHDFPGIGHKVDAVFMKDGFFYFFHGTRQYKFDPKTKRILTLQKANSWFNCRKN

[3] = target: T3, MMP-14 (Homo sapiens, UniProt P50281); experiment: MMP-14 inhibition (in vitro Ki)
T3 construct: The catalytic domain enzyme was expressed in E. coli inclusion bodies, solubilized in urea; made in house

[4] = target: T4, MMP-13 (Homo sapiens, UniProt P45452); experiment: MMP-13 inhibition (in vitro Ki); conditions: Table 8; read-out: MMP-13 Ki
T4 construct: made in house; host or cells: baculovirus / insect cells

[5] = target: T5, MMP-9 (Homo sapiens, UniProt P14780); experiment: MMP-9 inhibition (in vitro Ki)
T5 construct: made in house; host or cells: MMP-9-transfected HT1080 cells (spent media)
T5 sequence (P14780 107-707 limits assumed): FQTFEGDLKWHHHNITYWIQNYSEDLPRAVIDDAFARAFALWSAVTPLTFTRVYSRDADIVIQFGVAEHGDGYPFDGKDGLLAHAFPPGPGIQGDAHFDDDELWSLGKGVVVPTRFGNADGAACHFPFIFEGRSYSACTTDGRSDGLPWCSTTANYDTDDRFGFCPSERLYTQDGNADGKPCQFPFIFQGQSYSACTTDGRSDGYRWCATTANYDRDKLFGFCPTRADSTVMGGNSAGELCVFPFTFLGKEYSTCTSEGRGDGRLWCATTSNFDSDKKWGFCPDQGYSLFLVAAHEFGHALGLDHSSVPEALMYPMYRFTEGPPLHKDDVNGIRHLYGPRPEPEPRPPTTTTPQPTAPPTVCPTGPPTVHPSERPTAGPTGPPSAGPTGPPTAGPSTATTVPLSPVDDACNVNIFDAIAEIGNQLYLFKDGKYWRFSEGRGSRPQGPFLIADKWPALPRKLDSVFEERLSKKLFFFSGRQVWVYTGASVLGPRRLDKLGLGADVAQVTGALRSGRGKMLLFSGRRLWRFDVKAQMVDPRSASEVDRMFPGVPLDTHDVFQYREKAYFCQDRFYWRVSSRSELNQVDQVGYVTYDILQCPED

| Compound | Ki ([1]; Table 8, read-out: MMP-2 Ki) [nM] | Ki ([2]; Table 8, read-out: MMP-1 Ki) [nM] | Ki ([3]; Table 8, read-out: MMP-14 Ki) [nM] | Ki [4] [nM] | Ki ([5]; Table 8, read-out: MMP-9 Ki) [nM] | Ki ([1]; Table 9, read-out: MMP-2 Ki (IC-50)) [nM] | Ki ([2]; Table 9, read-out: MMP-1 Ki (IC-50)) [nM] | Ki ([3]; Table 9, read-out: MMP-14 Ki (IC-50)) [nM] | Ki ([5]; Table 9, read-out: MMP-9 Ki (IC-50)) [nM] |
| --- | --- | --- | --- | --- | --- | --- | --- | --- | --- |
| CC(C)(C)CCOC1CCN(S(=O)(=O)C2(C(=O)NO)CCOCC2)CC1 [Example A36E] | 112 | > 10000 | 4250 | 65.8 | 365 |  |  |  |  |
| CC(C)CCCCCOC1CCN(S(=O)(=O)C2(C(=O)NO)CCOCC2)CC1 [Example A36F] | 2.47 | > 10000 | 1900 | 1.11 | 2.26 |  |  |  |  |
| O=C(NO)C1(S(=O)(=O)N2CCC(OCCCc3ccccc3)CC2)CCOCC1 [Example A36G] | 31.1 | > 10000 | 2610 | 30.2 | 16.4 |  |  |  |  |
| CCCCOCCOC1CCN(S(=O)(=O)C2(C(=O)NO)CCOCC2)CC1 [Example A36H] | 60.1 | > 10000 | > 10000 | 70.5 | 45.7 |  |  |  |  |
| CCCCOCCCC1CCN(S(=O)(=O)C2(C(=O)NO)CCOCC2)CC1 [Example A36I] | 9.08 | > 10000 | 6370 | 7.7 | 2.57 |  |  |  |  |
| O=C(NO)C1(S(=O)(=O)N2CCC(CCCOCCCC(F)(F)F)CC2)CCOCC1 [Example A36J] | 7.8 | > 10000 | 6550 | 4.38 | 10.3 |  |  |  |  |

Other lines, results leading:

| Ki ([1]; Table 8, read-out: MMP-2 Ki) [nM] | Ki ([2]; Table 8, read-out: MMP-1 Ki) [nM] | Ki ([3]; Table 8, read-out: MMP-14 Ki) [nM] | Ki [4] [nM] | Ki ([5]; Table 8, read-out: MMP-9 Ki) [nM] | Ki ([1]; Table 9, read-out: MMP-2 Ki (IC-50)) [nM] | Ki ([2]; Table 9, read-out: MMP-1 Ki (IC-50)) [nM] | Ki ([3]; Table 9, read-out: MMP-14 Ki (IC-50)) [nM] | Ki ([5]; Table 9, read-out: MMP-9 Ki (IC-50)) [nM] | Compound |
| --- | --- | --- | --- | --- | --- | --- | --- | --- | --- |
| 0.97 | 6710 | 690 | 0.3 | 0.3 |  |  |  |  | O=C(NO)C1(S(=O)(=O)N2CCC(CCCCCOCCC(F)(F)F)CC2)CCOCC1 [Example A37, 4-{4-[5-(3,3,3-Trifluoro-propoxy)-pentyl]-piperidine-1-sulfonyl}-tetrahydro-pyran-4-carboxylic Acid Hydroxyamide] |
| 0.72 | 4580 | 1190 | 0.52 | 2.25 |  |  |  |  | CCOCCCCCC1CCN(S(=O)(=O)C2(C(=O)NO)CCOCC2)CC1 [Example A38, 4-[4-(5-ethoxy-pentyl)-piperidine-1-sulfonyl]-tetrahydro-pyran-4-carboxylic Acid Hydroxyamide] |
|  |  |  |  |  | 770 | > 10000 | > 10000 | 1620 | O=C(NO)C1(S(=O)(=O)N2CCC(N3CCN(c4ccc(F)cc4)CC3)CC2)CCOCC1 [Example A197] |
